Assay results published in patent publication US6872805B2 (Bristol-Myers Squibb Company, priority 2000, dated 2005).

Columns and labels:
[1] = target: T1, NS3/4A H77C strain (Hepatitis C virus genotype 1a, UniProt P27958, C1454S); test: Recombinant HCV NS3/4A protease complex FRET peptide assay, H77C strain; format: biochemical, HCV genotype 1a
T1 construct: DNA encoding the recombinant HCV NS3/4A protease complex (amino acid 1027 to 1711) for these strains; inferred from pET21b vector and Ni-NTA purification; made in house; host or cells: E. coli BL21 (DE3)
From the text: (§1) The purpose of this in vitro assay was to measure the inhibition of HCV NS3 protease complexes, derived from the BMS, H77C or J416S strains, as described below, by compounds of the present invention. This assay provides an indication of how effective compounds of the present invention would be in inhibiting HCV […] proteolytic activity.
(§2) Serum from an HCV-infected patient was obtained from Dr. T. Wright, San Francisco Hospital. An engineered full-length cDNA template of the HCV genome (BMS strain) was constructed from DNA fragments obtained by reverse transcription-PCR (RT-PCR) of serum RNA and using primers selected on the basis of homology between other genotype 1a strains. From the determination of the entire genome sequence, a genotype 1a was assigned to the HCV isolate according to the classification of Simmonds et al. (See P Simmonds, K A Rose, S Graham, S W Chan, F McOmish, B C Dow, E A Follett, P L Yap and H Marsden, J. Clin. Microbiol., 31(6), 1493-1503 (1993)). […] The infectious clones, H77C (1a genotype) and J4L6S (1b genotype) were obtained from R. Purcell (NIH) and the sequences are published in genebank (AAB67036, see Yanagi, M., Purcell, R. H., Emerson, S. U. and Bukh, J. Proc. Natl. Acad. Sci. U.S.A. 94(16),8738-8743 (1997); AF054247, see Yanagi, M., St Claire, M., Shapiro, M., Emerson, S. U., Purcell, R. H. and Bukh, J, Virology 244 (1), 161-172. (1998)). […]

[2] = target: T2, NS3/4A J4L6S strain (Hepatitis C virus genotype 1b, UniProt O92972, C1454S/C1711G); test: Recombinant HCV NS3/4A protease complex FRET peptide assay, J4L6S strain; format: biochemical, HCV genotype 1b
T2 construct: DNA encoding the recombinant HCV NS3/4A protease complex (amino acid 1027 to 1711) for these strains; inferred from pET21b vector and Ni-NTA purification; made in house; host or cells: E. coli BL21 (DE3)
From the text: as §1, §2

[3] = target: T3, porcine pancreatic elastase (Sus scrofa, UniProt P00772); test: Specificity assay, porcine pancreatic elastase; format: biochemical; conditions: read-out: PPE
T3 construct: from tissue; host or cells: pancreas (from the enzyme's name only)
Description: (§3) The specificities of compounds of the present invention were determined against a variety of serine proteases: human leukocyte elastase, porcine pancreatic elastase and bovine pancreatic α-chymotrypsin and one cysteine protease: human liver cathepsin B. In all cases a 96-well plate format protocol using calorimetric […] (pNA) substrate specific for each enzyme was used as described previously (Patent WO 00/09543) with some modifications.
(§4) Each assay included a 1 h enzyme-inhibitor pre-incubation at RT followed by addition of substrate and hydrolysis to ˜30% conversion as measured on a Spectramax Pro microplate reader. Compound concentrations varied from 100 to 0.4 μM depending on their potency.
(§5) The final conditions and protocol for each assay was as reported previously (Patent WO 00/09543) with the inclusion of an additional assay: • 50 mM Tris-HCl pH 8, 0.5M Na2SO4, 50 mM NaCl, 0.1 mM EDTA, 3% DMSO, 0.01% Tween-20 with 133 μM succ-AAA-PNA and 20 nM Elastase
(§6) The percentage of inhibition was calculated using the formula: [1−((UVinh−UVblank)/(UVctl−UVblank))]×100

[4] = target: T4, bovine pancreatic α-chymotrypsin (Bos taurus, UniProt P00766); test: Specificity assay, bovine pancreatic α-chymotrypsin; format: biochemical
T4 construct: from tissue; host or cells: pancreas (from the enzyme's name only)
Description: as §3, §4, §5, §6

[5] = target: T5, human liver cathepsin B (Homo sapiens, UniProt P07858); test: Specificity assay, human liver cathepsin B; format: biochemical
T5 construct: from tissue; host or cells: liver
Description: as §3, §4, §5, §6

T1 sequence (P27958 1027-1657 C1454S): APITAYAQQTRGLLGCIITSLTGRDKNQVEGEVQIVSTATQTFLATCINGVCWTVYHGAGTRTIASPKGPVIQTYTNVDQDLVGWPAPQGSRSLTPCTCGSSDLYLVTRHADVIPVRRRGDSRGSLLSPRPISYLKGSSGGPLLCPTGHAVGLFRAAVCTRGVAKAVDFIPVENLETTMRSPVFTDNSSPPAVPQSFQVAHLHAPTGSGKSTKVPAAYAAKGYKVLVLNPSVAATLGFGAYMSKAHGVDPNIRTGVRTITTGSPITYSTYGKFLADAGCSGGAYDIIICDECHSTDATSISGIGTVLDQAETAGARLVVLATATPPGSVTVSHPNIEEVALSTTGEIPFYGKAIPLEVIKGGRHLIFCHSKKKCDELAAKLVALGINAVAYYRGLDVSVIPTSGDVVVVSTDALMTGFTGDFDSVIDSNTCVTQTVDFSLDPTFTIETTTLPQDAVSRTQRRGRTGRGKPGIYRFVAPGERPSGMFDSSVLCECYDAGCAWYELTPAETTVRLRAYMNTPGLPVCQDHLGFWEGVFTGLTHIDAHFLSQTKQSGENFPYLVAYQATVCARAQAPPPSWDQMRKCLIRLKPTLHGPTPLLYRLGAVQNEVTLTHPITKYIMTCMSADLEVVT
T1 sequence (P27958 1658-1711 partner, looked up, stated change not applied): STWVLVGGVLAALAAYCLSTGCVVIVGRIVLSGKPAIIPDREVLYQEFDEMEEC
T3 sequence (P00772 27-266): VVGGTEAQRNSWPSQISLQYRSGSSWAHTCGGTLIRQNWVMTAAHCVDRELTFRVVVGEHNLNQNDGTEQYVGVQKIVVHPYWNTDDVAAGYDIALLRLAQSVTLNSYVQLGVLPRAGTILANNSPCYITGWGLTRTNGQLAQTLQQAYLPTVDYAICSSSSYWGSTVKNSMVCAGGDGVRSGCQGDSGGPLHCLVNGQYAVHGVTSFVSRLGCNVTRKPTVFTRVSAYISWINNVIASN
T2 sequence (O92972 1027-1711 C1454S/C1711G): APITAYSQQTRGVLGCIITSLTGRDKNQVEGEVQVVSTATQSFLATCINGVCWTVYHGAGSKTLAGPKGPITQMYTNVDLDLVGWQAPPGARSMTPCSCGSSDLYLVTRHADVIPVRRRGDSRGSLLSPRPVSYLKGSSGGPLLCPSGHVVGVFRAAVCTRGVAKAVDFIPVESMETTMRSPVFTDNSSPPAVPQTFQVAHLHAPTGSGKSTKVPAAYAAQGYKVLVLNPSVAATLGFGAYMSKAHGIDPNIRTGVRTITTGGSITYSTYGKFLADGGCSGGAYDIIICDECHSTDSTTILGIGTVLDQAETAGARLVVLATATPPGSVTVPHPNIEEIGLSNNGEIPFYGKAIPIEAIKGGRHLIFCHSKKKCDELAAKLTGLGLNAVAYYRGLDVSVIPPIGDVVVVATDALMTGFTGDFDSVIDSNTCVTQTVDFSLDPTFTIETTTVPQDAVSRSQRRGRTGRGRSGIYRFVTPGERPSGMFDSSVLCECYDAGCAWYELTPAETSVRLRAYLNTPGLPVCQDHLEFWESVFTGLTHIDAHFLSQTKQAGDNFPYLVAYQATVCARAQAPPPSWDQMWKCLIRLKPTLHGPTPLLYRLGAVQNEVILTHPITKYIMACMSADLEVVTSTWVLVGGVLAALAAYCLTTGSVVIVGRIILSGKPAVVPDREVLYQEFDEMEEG

C=CC1C[C@]1(NC(=O)[C@@H]1C[C@@H](Oc2cc(-c3ccccc3)nc3cc(OC)ccc23)CN1C(=O)C(NC(=O)OC(C)(C)C)C(C)(C)C)C(=O)NS(=O)(=O)c1ccc(NC(C)=O)cc1 (some centres unmarked) [Compound 58]
IC50 [1]: 10 nM | IC50 [2]: 8 nM | IC50 [3]: > 100000 nM | IC50 [4]: > 100000 nM | IC50 [5]: > 100000 nM
